The results in this text go back to patent US8314234B2, “Bicyclic pyrimidine kinase inhibitors” (Janssen Pharmaceutica N.V., priority 2006, dated 2012).

The target of one test is T1, EGFR (Homo sapiens, UniProt P00533).
T1 construct: intracellular portion of EGFR started at nucleotide 2189 (corresponding to amino acid 667) and ended at the termination codon; made in house; host or cells: Sf9 insect cells (baculovirus)
The experiment in a line: EGFR Kinase Assay. It counts as biochemical. The text has this: The EGFR kinase used was a fusion of Glutathione-S-Transferase (GST) and a PCR amplified intracellular portion of EGFR (NM_005228). The intracellular portion of EGFR started at nucleotide 2189 (corresponding to amino acid 667) and ended at the termination codon. The portion was PCR amplified with primers that added the lambda attB sequences to each end, recombined into an entry vector, then into a GST destination vector (as described in Gateway Technologies Manual by Invitrogen Corporation, Carlsbad, Calif.).
The destination vector was recombined in the DH10BAC strain of bacteria to produce a bacmid. The bacmid was transfected into Sf9 cells and the supernatant containing the baculovirus was collected. The GSTEGFR protein was purified using large cultures of Sf9 cells infected with stock virus. After an appropriate period of time, the cells were collected and lysed. The GSTEGFR was then purified from the lysate on Glutathione-Sepharose columns (as described by Amersham Biosciences, Buckinghamshire, United Kingdom).
The EGFR substrate was prepared by biotinylating polyGluTyr (128 mg) (Sigma, St. Louis, Mo.) in a 1×PBS buffer incubated together with a 12-fold molar excess of Sulfo-NHS-LC-Biotin on ice for at least 2 hrs. The free biotin was separated from the biotinylated polyGluTyr on a gel filtration column.
A mixture of a 10× kinase buffer (500 mM Tris at pH 8.0, 100 mM Magnesium Chloride and 1 mM Sodium Vanadate), DTT (1 mM final from 500 mM stock), ATP (5 μM final from 10 mM stock), biotinylated polyGluTyr (10 μg/μL stock), γ-^33P ATP (10 μCi/μL stock) and water was added to each well (90 μL/well) of a Streptavidin Flashplate (Perkin Elmer, Wellesley, Mass.).
Test compound in 100% DMSO (2 μL) was added to the appropriate wells. Diluted GSTEGFR (1:300 dilution in 50 mM Tris at pH 8.0 and 0.1% bovine serum albumin) (10 μL) was added to the wells to initiate the reactions.
The plates were incubated at 30° C. for 1 hr with shaking. The reacted contents were removed and the plates were sequentially washed three times with a 1×PBS stop buffer (300 μL without Magnesium and Calcium) and 100 mM EDTA. After the final wash, the same stop buffer (200 μL) was added to the wells. The plates were then sealed and read on the TopCount scintillation counter.
Test compounds were assayed in triplicate at 16 concentrations at half-log dilutions starting at 200 uM. A maximum and minimum signal for the assay was determined on each plate. The percent inhibition of a test compound was calculated according to the formula
For a series of test concentrations, the IC50 was derived by graphing percent inhibition against the log of the concentrations tested for a given compound. The percent inhibition results are shown in Table 1 at a test concentration of 2 μM. For those compounds with an IC50, the IC50 value is shown in parentheses.

The next test addresses VEGFR2 (Rattus norvegicus, UniProt O08775). Nature of the test: VEGFR2 screening assay. It counts as biochemical. As to the method:
A kinase reaction mixture was prepared containing 50 mM Tris-HCl pH=8, 10 mM MgCl2, 0.1 mM […], 1 mM DTT, 10 μM ATP, 0.025 μM biotinylated histone-H1 peptide substrate and 0.2 μCuries per well ^33P-γ-ATP (2000-3000 Ci/mmol). 70 μL of the kinase reaction mixture was dispensed into the well of a streptavidin coated FlashPlate™ (Cat. #SMP103, NEN, Boston, Mass.).
(§1) Test compound stock in 100% DMSO (1 μL) was added to the wells resulting in a final concentration of 1% DMSO in the reaction with a 100 μL final reaction volume. Each enzyme was diluted in 50 mM Tris-HCl pH=8.0, 0.1% BSA and 30 μL was added to each well to initiate the reaction. The reaction was incubated for one hour at 30° C. At the end of the 1 hr incubation, the reaction was terminated by aspirating the mixture from the plate and washing the wells twice with PBS containing 100 mM EDTA. The biotinylated peptide substrate became immobilized on the Flashplate and the incorporation of ^33P-γ-ATP was measured by reading the plate on a scintillation counter. Inhibition of the enzymatic activity was measured by observing a reduced amount of ^33P-γ-ATP incorporated into the immobilized peptide.
The VEGF-R2 enzyme is a fusion protein containing a polyhistidine tag at the N terminus followed by amino acids 786 to 1343 of the rat VEGF-R2 kinase domain (Accession number U93306). The assay used 150 ng of the N-terminal biotinylated peptide biotin-[…]-amide SEQ ID NO: 2) (VEGF-R2) per well.
(§2) A maximum and minimum signal for the assay was determined on each plate. The percent inhibition of a test compound was calculated according to the formula: […]
For a series of test concentrations, the IC50 was derived by graphing percent inhibition against the log of the concentrations tested for a given compound with results shown in Table 2. For those compounds without an IC50, the inhibition values in percent are shown at a test concentration of 2 μM. The term “ND” means “not determined.”

For the next test, the target named is T2, CDK2 (Homo sapiens, UniProt P24941).
T2 construct: purchased Upstate Biotech, Lake Placid, N.Y
Nature of the test: CDK-2 screening assay. It counts as biochemical. As to the method: (§3) 70 μL of the kinase reaction mixture was dispensed into the well of a streptavidin coated FlashPlate™ (Cat. #SMP103, NEN, Boston, Mass.).
as §1
The CDK2 enzyme in complex with cyclin A is commercially available (Upstate Biotech, Lake Placid, N.Y.).
as §2
(§4) The term “ND” means “not determined.”

The next test deals with T3, CDK1 (Homo sapiens, UniProt P06493).
T3 construct: purchased New England Biolabs, Beverly, Mass; 6020; host or cells: insect cells
T3 sequence (P06493 whole entry): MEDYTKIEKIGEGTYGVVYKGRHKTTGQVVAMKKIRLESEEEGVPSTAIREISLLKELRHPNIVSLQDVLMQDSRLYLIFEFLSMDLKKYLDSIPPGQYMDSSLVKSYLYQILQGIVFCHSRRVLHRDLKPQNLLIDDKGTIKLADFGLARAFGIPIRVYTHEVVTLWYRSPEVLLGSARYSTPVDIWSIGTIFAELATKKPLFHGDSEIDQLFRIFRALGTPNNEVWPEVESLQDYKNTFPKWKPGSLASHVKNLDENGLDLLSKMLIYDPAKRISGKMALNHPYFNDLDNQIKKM
T3 sequence (P14635 whole entry partner): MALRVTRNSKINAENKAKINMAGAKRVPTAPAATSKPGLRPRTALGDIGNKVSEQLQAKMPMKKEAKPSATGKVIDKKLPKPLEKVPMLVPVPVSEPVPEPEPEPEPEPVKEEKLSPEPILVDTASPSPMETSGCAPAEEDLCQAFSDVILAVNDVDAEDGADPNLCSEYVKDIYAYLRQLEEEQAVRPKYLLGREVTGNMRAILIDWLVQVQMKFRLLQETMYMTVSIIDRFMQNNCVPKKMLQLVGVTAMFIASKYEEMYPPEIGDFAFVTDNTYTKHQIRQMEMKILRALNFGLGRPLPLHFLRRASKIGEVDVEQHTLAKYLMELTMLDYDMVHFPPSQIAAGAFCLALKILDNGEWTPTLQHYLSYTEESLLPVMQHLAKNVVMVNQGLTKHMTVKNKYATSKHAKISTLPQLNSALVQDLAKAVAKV
The experiment in a line: CDK-1 screening assay. It is filed as biochemical. As to the method:
as §3, §1, §2, §4

Test [1] has as its system HeLa cervical adenocarcinoma. The experiment in a line: Cell Proliferation Inhibition Assay (14C-thymidine incorporation), HeLa. Particulars: Homo sapiens. It counts as cell-based. The source says: (§5) The ability of a test compound to inhibit unregulated cell proliferation may be determined by measuring incorporation of ^14C-labelled thymidine into newly synthesized DNA within cell lines derived from carcinomas originating from several tissues. Accordingly, the anti-proliferative effect of a compound on cells with a variety of phenotypes may be determined.
(§6) Carcinoma cell lines include those such as HeLa cervical adenocarcinoma (American Type Culture Collection (ATCC), Virginia, Cat. #CCL-2), A375 malignant melanoma (ATCC CRL-1619), SK-OV-3 ovarian adenocarcinoma (ATCC HTB-77), HCT-116 colon carcinoma (CCL-247), PC-3 prostate adenocarcinoma (ATCC CRL-1435), and MDA-MB-231 (Xenogen Corp.)
(§7) The carcinoma cells are trypsinized and counted. The cells (3000-8000 count) are added to each well of a 96-well CytoStar tissue culture treated scintillating microplate (Amersham #RPNQ0160) in complete medium (100 μL) and the plate is then incubated in complete medium for 24 hrs at 37° C. in an inert atmosphere containing 5% CO2. Test compound (1 μL) in 100% DMSO is added to the plate test-wells with DMSO only added to control-wells. The plate is incubated in complete medium for a second 24 hr period at 37° C. in an atmosphere containing 5% CO2.
(§8) An aliquot of a solution of Methyl ^14C-thymidine (56 mC/mmol) (NEN #NEC568 or Amersham #CFA532) and complete medium (20 uL to provide 0.2 μCi/well) is then added to each well and the plate is incubated for a third 24 hr period at 37° C. in an atmosphere containing 5% CO2. The plate contents are then discarded, the plate is washed twice with PBS (200 μL) and then PBS (200 μL) is added to each well. The plate is sealed and the degree of methyl ^14C-thymidine incorporation is quantified on a Packard Top Count.

The subject of another test is HCT-116 colon carcinoma. Nature of the test: Cell Proliferation Inhibition Assay (14C-thymidine incorporation), HCT-116. It is filed as cell-based. The settings on record: Homo sapiens.
Description: as §5, §6, §7, §8

A further test relates to A375 malignant melanoma. The experiment in a line: Cell Proliferation Inhibition Assay (14C-thymidine incorporation), A375. It is filed as cell-based. Particulars: Homo sapiens, A-375.
Description: as §5, §6, §7, §8

Sequence of VEGFR2 (O08775 786-1343): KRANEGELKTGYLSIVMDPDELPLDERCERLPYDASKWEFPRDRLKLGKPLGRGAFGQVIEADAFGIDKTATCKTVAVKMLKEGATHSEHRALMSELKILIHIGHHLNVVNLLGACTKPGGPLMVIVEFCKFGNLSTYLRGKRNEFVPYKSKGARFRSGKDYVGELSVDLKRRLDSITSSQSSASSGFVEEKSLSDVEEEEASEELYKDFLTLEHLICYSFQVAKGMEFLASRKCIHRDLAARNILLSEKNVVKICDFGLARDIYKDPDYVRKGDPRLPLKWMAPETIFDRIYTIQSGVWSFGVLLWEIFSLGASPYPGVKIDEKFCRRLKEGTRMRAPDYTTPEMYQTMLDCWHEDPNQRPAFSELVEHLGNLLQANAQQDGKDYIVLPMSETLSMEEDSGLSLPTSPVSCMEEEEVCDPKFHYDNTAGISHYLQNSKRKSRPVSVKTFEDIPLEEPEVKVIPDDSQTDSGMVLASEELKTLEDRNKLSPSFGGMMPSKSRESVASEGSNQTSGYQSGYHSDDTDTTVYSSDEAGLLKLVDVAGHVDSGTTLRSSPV

Turning to `NS(=O)(=O)c1ccc(Nc2nc(Nc3ccccc3)nc3[nH]ncc23)cc1` [Cpd 6, 4-(6-phenylamino-1H-pyrazolo[3,4-d]pyrimidin-4-ylamino)-benzenesulfonamide], at EGFR (test concentration of 2 μM), testing at 2 µM gave an inhibition of 40%. Besides, the IC50 against VEGFR2 turned out to be 4.28 µM; against CDK2 it was 1.11 µM; against CDK1, 2.34 µM.
At EGFR (test concentration of 2 μM), `NS(=O)(=O)c1ccc(Nc2nc(Nc3ccc4[nH]ncc4c3)nc3[nH]ncc23)cc1` [Cpd 12, 4-[6-(1H-indazol-5-ylamino)-1H-pyrazolo[3,4-d]pyrimidin-4-ylamino]-benzenesulfonamide] returned an inhibition at 2 µM of 44%. Besides, the IC50 was 0.536 µM against VEGFR2; 36 µM in test [1]; 0.432 µM against CDK2; 0.568 µM at CDK1; 10 µM with HCT-116 colon carcinoma; 85.2 µM with A375 malignant melanoma.
Regarding “4-[6-(1H-indazol-5-ylamino)-1H-pyrazolo[3,4-d]pyrimidin-4-ylamino]-benzenesulfonamide [Cpd 4]”, the “EGFR Inhibition (%)” value at EGFR (test concentration of 2 μM) is recorded as 65%. Further, the IC50 against VEGFR2 turned out to be 1.15 µM; at CDK2, 0.15 µM; against CDK1, 0.527 µM.
As for `NS(=O)(=O)c1ccc(Nc2nc(Nc3ccc(S(N)(=O)=O)cc3)c3cnoc3n2)cc1` [Cpd 5, N^4,N^6-bis-[4-(amino-sulfonyl)-phenyl]-isoxazolo[5,4-d]pyrimidine-4,6-diamine], the inhibition at 2 µM on EGFR (test concentration of 2 μM) was determined as 39%. Besides, the IC50 on VEGFR2 was found to be 2.45 µM; in test [1] it was 70.7 µM; at CDK2, 0.443 µM; against CDK1, 2.53 µM; in the test on HCT-116 colon carcinoma, 38.2 µM; in the test on A375 malignant melanoma, 27 µM.
In the case of `NS(=O)(=O)c1cccc(Nc2nc(Nc3cccc(S(N)(=O)=O)c3)c3cn[nH]c3n2)c1` [Cpd 22, N^4,N^6-bis-[3-(amino-sulfonyl)-phenyl]-1H-pyrazolo[3,4-d]pyrimidine-4,6-diamine], the IC50 stood at 0.2 µM on EGFR (read-out: EGFR IC50 (value in parentheses)); 1 µM on VEGFR2; 100 µM in test [1]; 0.475 µM at CDK1; 100 µM with HCT-116 colon carcinoma; 100 µM in the test with A375 malignant melanoma. At EGFR (test concentration of 2 μM), the inhibition at 2 µM came to 66.7%.
At EGFR (test concentration of 2 μM), `NS(=O)(=O)c1ccc(Nc2nc(Nc3ccccn3)c3cn[nH]c3n2)cc1` [Cpd 8, 4-[4-(pyridin-2-ylamino)-1H-pyrazolo[3,4-d]pyrimidin-6-ylamino]-benzenesulfonamide] registered an inhibition at 2 µM of 25%. Also, the IC50 worked out at 6.98 µM on VEGFR2; 100 µM in test [1]; 7.62 µM on CDK2; 24.7 µM at CDK1; 100 µM in the test on HCT-116 colon carcinoma; 100 µM with A375 malignant melanoma.
In turn, `O=S(=O)(NCCO)c1ccc(Nc2nc(Nc3ccccc3)c3cnoc3n2)cc1` [Cpd 20, N-(2-hydroxy-ethyl)-4-(4-phenylamino-isoxazolo[5,4-d]pyrimidin-6-ylamino)-benzenesulfonamide] yielded an inhibition at 2 µM at EGFR (test concentration of 2 μM) of 26%. For the same compound, the IC50 at VEGFR2 is 23.1 µM; in test [1], 25 µM; at CDK2 it was 4.4 µM; on CDK1, above 100 µM; in the test on HCT-116 colon carcinoma, 100 µM; in the test with A375 malignant melanoma it was 100 µM.
`CC(C)(C)n1ncc2c(Nc3ccc(S(=O)(=O)NCCO)cc3)nc(Nc3ccc(S(=O)(=O)NCCO)cc3)nc21` [Cpd 18, 1-t-butyl-N^4,N^6-bis-{4-[(2-hydroxy-ethyl)-amino-sulfonyl]-phenyl}-1H-pyrazolo[3,4-d]pyrimidine-4,6-diamine]: 2 µM produced 23% inhibition against EGFR (test concentration of 2 μM). Also, the IC50 was above 100 µM at VEGFR2; 100 µM in test [1]; 0.493 µM at CDK2; 2.79 µM against CDK1; 100 µM with HCT-116 colon carcinoma; 1.2 µM in the test with A375 malignant melanoma.
